Test systems include NCI-H23; TK-10; SNB-78; SK-OV-3; EKVX; NCI-H226; SF-295; KM-20L2; K562; UO-31; SNB-19; KM12; SR; SW-620; SK-MEL-5.
Holding throughout (test): DTP human tumour cell line panel, 48 h

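48-hour exposure; five concentrations; linearly interpolated endpoints. Here, GI50 denotes the concentration required for 50% inhibition of growth.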 Activity calls are given as the source filed them. Rule as the data show it: active = GI50 up to about 1.1 µM and inactive = higher.

The term GI50 denotes the concentration giving 50% growth inhibition.

As to `CCC(CC)NC1=C(NC(C)=O)C(=O)c2ccccc2C1=O`, the GI50 in the assay with NCI-H23, in the assay with TK-10, in the assay on SNB-78, with SK-OV-3, in the assay on EKVX and with NCI-H226 was > 50 µM (inactive) throughout. The GI50 in the assay on SF-295, in the assay on KM-20L2, with K562, in the assay with UO-31, with SNB-19 and with KM12 was > 50 µM (inactive) in each case. For the same molecule, the GI50 in the assay on SR, with SW-620 and with SK-MEL-5 was > 50 µM (inactive) throughout.
Take `CCN(CC)CCNc1ccc(C)c2sc3ccc(O)cc3c(=O)c12`: the GI50 with NCI-H23 is 1.2 µM (inactive); in the assay on TK-10, 3.4 µM (inactive); in the assay on SNB-78, 1.76 µM (inactive); in the assay on SK-OV-3, 1.52 µM (inactive); with EKVX it was 10.2 µM (inactive); in the assay on NCI-H226, 0.466 µM (active). Also, the concentration for 50% growth inhibition (GI50) is 0.27 µM (active) with SF-295; 2.14 µM (inactive) in the assay on KM-20L2; 0.832 µM (active) in the assay with K562; 1.14 µM (inactive) in the assay on UO-31; 1.82 µM (inactive) with SNB-19; 1.43 µM (inactive) in the assay with KM12. The results for the GI50 in the assay on SR, with SW-620 and with SK-MEL-5 were 0.0149 µM (active), 0.582 µM (active) and 0.851 µM (active), respectively.
In the case of `CCOC(=O)/C(=C/c1ccc(N(C)C)cc1)N(CC)CC`, the GI50 was 49.4 µM (inactive) with NCI-H23; > 100 µM (inactive) in the assay on TK-10; 69.3 µM (inactive) in the assay on SNB-78; > 100 µM (inactive) in the assay on SK-OV-3; 35.2 µM (inactive) with EKVX; 21.1 µM (inactive) in the assay on NCI-H226. The GI50 in the assay with SF-295 is > 100 µM (inactive); in the assay on KM-20L2, > 100 µM (inactive); in the assay with K562, 22.5 µM (inactive); in the assay on UO-31 it was 68.5 µM (inactive); with SNB-19, > 100 µM (inactive); in the assay with KM12 it was 79.8 µM (inactive). The figures for the GI50 in the assay with SR, in the assay with SW-620 and with SK-MEL-5 were 48.6 µM (inactive), 44 µM (inactive) and > 10 µM (inactive), respectively.
For `Cc1cccc(NC(=O)C(=O)C2C(=O)NC(=O)NC2=O)c1C`, the GI50 with NCI-H23, with TK-10, with SNB-78, in the assay with SK-OV-3, in the assay with EKVX and in the assay with NCI-H226 was > 100 µM (inactive) throughout. Moreover, the GI50 with SF-295, in the assay on KM-20L2, in the assay on K562, in the assay on UO-31, in the assay with SNB-19 and in the assay with KM12 was > 100 µM (inactive) each time. Moreover, the GI50 in the assay on SR, in the assay on SW-620 and in the assay with SK-MEL-5 was > 100 µM (inactive) in each case.
Turning to `O=C1C(=O)C2(CC1S(=O)(=O)c1ccccc1)c1ccccc1-c1ccccc12` (stereo not given), the GI50 with NCI-H23 was 15.5 µM (inactive); in the assay with TK-10, 25.8 µM (inactive); in the assay on SNB-78, 17.5 µM (inactive); in the assay with SK-OV-3 it was 38.9 µM (inactive); in the assay with EKVX it was 28.8 µM (inactive); in the assay with NCI-H226, 37.4 µM (inactive). Further, the GI50 with SF-295 was 21.3 µM (inactive); in the assay with KM-20L2 it was 44 µM (inactive); in the assay with K562, 27.6 µM (inactive); in the assay with UO-31, 19.7 µM (inactive); in the assay on SNB-19 it was 20.6 µM (inactive); in the assay with KM12 it was 19.2 µM (inactive). Also, the GI50 in the assay on SR is 24 µM (inactive); with SW-620, 34.6 µM (inactive); in the assay on SK-MEL-5, 14.6 µM (inactive).
With `CC(=O)Nc1ccc(C2C(C(=O)Nc3ccccc3C)=C(C)NC(C)=C2C(=O)Nc2ccccc2C)cc1`, the GI50 in the assay with NCI-H23, in the assay with TK-10, in the assay on SNB-78, in the assay on SK-OV-3, in the assay with EKVX and in the assay with NCI-H226 was > 100 µM (inactive) in each case. In addition, the GI50 in the assay on SF-295 was > 100 µM (inactive); with KM-20L2 it was > 100 µM (inactive); with K562, 57.5 µM (inactive); with UO-31, > 100 µM (inactive); in the assay with SNB-19 it was > 100 µM (inactive); in the assay with KM12 it was > 31.6 µM (inactive). The figures for the GI50 in the assay with SR, in the assay with SW-620 and with SK-MEL-5 were 20.1 µM (inactive), > 100 µM (inactive) and > 100 µM (inactive), respectively.
Regarding `CCOC(=O)CCC(NC(=O)c1ccc(NCc2ccc3nc(-c4ccccc4)c(Cl)nc3c2)cc1)C(=O)OCC` (stereo not given), the GI50 is 79.8 µM (inactive) with NCI-H23; 83.9 µM (inactive) in the assay on TK-10; 32.4 µM (inactive) in the assay on SNB-78; > 100 µM (inactive) in the assay on SK-OV-3; 46.3 µM (inactive) in the assay with EKVX; 32.4 µM (inactive) with NCI-H226. Besides, the GI50 in the assay on SF-295 was 76.2 µM (inactive); with KM-20L2 it was 80.5 µM (inactive); in the assay on K562 it was 6.19 µM (inactive); in the assay on UO-31 it was 22.9 µM (inactive); in the assay with SNB-19, 97.7 µM (inactive); in the assay with KM12, > 100 µM (inactive). For the same molecule, the GI50 with SR was 13.5 µM (inactive); in the assay on SW-620, > 100 µM (inactive); with SK-MEL-5 it was 11.3 µM (inactive).
As for `CC(=O)OC12C=CC(=O)N1c1ccccc1C(=O)O2` (stereo not given), the GI50 was > 100 µM (inactive) in the assay with NCI-H23; > 100 µM (inactive) in the assay with TK-10; 32.1 µM (inactive) in the assay with SNB-78; > 100 µM (inactive) in the assay on SK-OV-3; > 100 µM (inactive) with EKVX; > 100 µM (inactive) in the assay on NCI-H226. The GI50 with SF-295, with KM-20L2, with K562, in the assay on UO-31, in the assay with SNB-19 and in the assay with KM12 was > 100 µM (inactive) each time. The GI50 in the assay with SR, in the assay with SW-620 and in the assay on SK-MEL-5 was > 100 µM (inactive) each time.
Turning to `COC(=O)C1C(=O)O[C@@H](c2ccc(OC)cc2OC)C1C(=O)OC` (stereo not given in full), the GI50 with NCI-H23, in the assay on TK-10, in the assay on SNB-78, in the assay on SK-OV-3, in the assay with EKVX and in the assay on NCI-H226 was > 100 µM (inactive) in each case. For the same molecule, the GI50 with SF-295, in the assay on KM-20L2, in the assay with K562, with UO-31, in the assay on SNB-19 and with KM12 was > 100 µM (inactive) each time. Moreover, the GI50 with SR, in the assay on SW-620 and in the assay with SK-MEL-5 was > 100 µM (inactive) in each case.
